The values that follow come from patent publication US20240306641A1, “P-BOOSTER” (EUROCHEM ANTWERPEN, priority 2021, published 2024).

Molecules are shown by their SMILES. “Also recorded” adds a separate entry of the source.

Assay [1] concerns Arabidopsis thaliana Columbia-0. In words: Arabidopsis horizontal plate leaf area assay. Type of assay: in vivo. On the procedure: (§1) All Arabidopsis plant experiments were performed using the Arabidopsis thaliana Columbia-0 background. The Arabidopsis pSPX1::GUS line is described in the […] 2008, 54: 965-975. For rice, the cultivar Nipponbare was used. For maize, the cultivars DKC 2931 and 8104 were used for regular pot experiments and sand-based pot experiments, respectively. For soybean, the cultivar Primus was used. […] The medium was solidified due to the addition of 0.6% Gelrite, unless stated otherwise. In case of vertical plates (root length and root hair measurements), the medium was supplied with 0.5% of sucrose and 1 μM (low phosphate, 1 μM KH2PO4, 9.9 mM KCl), 10 μM (low phosphate 10 μM KH2PO4, 9.9 mM KCl) or 1.25 mM KH2PO4 (high phosphate). Arabidopsis seeds were stratified for 2 days at 4° C. before germination. Seedlings were germinated in climate-controlled growth chambers at 22° C. under continuous light ([…] m^−2 s^−1). Husked rice seeds were germinated on wetted Whatman paper for 2 days at 37° C. and then transferred to Sterivent boxes or square Petri dishes with solid medium. Maize and soybean seeds were wetted 24 hours at room temperature prior to sowing in pots.
Arabidopsis primary root growth experiments were done on MS1/2 on vertical standing plates and roots were measured 11 days after germination. Roots were imaged using a flatbed scanner (EPSON Expression 11000XL) and root length was measured using ImageJ software. Arabidopsis shoot biomass was determined in 11 days after germination and growth on vertical standing plates with modMS. Arabidopsis leaf area was measured 21 days after germination on horizontal plates with modMS medium. Plates were scanned from the top using a flatbed scanner (EPSON Expression 11000XL) and the visible leaf area was measured using ImageJ software. Rice plate experiments used vertically standing Petri dishes containing MS1/2 medium (low phosphate—0.001 mM) solidified with 0.8% washed agar. Plant height was measured 11 days after germination. Rice box experiments used modMS medium and a low phosphate condition of 0.025 mM phosphate. Plant height was measured 13 days after germination. All growth experiments occurred with 10 μM of compound and in low phosphate conditions, unless stated otherwise. Controls always received the same DMSO concentration.

Assay [2] concerns SPX1 phosphate starvation biomarker (pSPX1::GUS). Briefly: Chemical activity assessment: SPX1 suppression in Arabidopsis pSPX1::GUS reporter line (GUS stained area). In kind it is in vivo, Arabidopsis thaliana. The procedure: as §1
For the chemical activity assessment 3 to 8 seeds per well of Arabidopsis pSPX1::GUS line were sown in 96-well plates containing 150 μl of low phosphate modMS liquid medium containing 1% of sucrose. Compounds were added in 50 μM concentration, starting from a 5 mM stock of compounds solved in DMSO. Different chemical substances were separately added to different wells. Per plate, 16 control wells were used, 8 containing only the low phosphate medium and 1% DMSO, and 8 containing high phosphate medium and 1% DMSO. 7 days after germination, plates were scanned using a flatbed scanner (EPSON Expression 11000XL) and analyzed for leaf size. After scanning, the growth medium was replaced by GUS staining solution (see Plant Mol. Biol. Rep. 1994, 12: 37-42 for details) and incubated for 1.5 hours at 37° C. The plates were scanned a second time and analyzed for GUS signal area. Measurements of both leaf area and GUS signal area were conducted by filtering out and measure the green and blue signal, respectively using ImageJ software. If the green leaf area was 50% or less than the control, samples were omitted. Additionally, all results were visually screened for leaf size and GUS signal.
To identify new substances that suppress the expression of the SPX1 phosphate starvation biomarker, we used an Arabidopsis SPX1 reporter line pSPX1::GUS. […] This observation was confirmed in two experimental repeats.

The subject of assay [3] is Arabidopsis thaliana Columbia-0. In words: Arabidopsis 96-well plate anthocyanin quantification. In kind it is in vivo. The procedure: Col-0 ecotype Arabidopsis seeds were sown in 96-well plates containing 150 μl of low phosphate modMS liquid medium containing 1% of sucrose. Compounds was added in 50 μM concentration (1% DMSO). Eight plants per repeat were collected 7 days after germination and put into a fresh Eppendorf. Extraction and quantification of anthocyanin levels was carried out according to The Plant cell 2013, 25:1641-1656. Anthocyanin levels were quantified by measuring absorption at 530 and 657 nm using a spectrophotometer and normalized to fresh weight input, and expressed relative to the low phosphate control. For pot experiments, the same procedure was followed with one 4-week old plant per sample.

For a further assay, the system named is soybean cultivar Primus. In words: Soybean pot experiment. The settings on record: low phosphate, 4 weeks. In kind it is in vivo. The procedure:
All Arabidopsis plant experiments were performed using the Arabidopsis thaliana Columbia-0 background. The Arabidopsis pSPX1::GUS line is described in the […] 2008, 54: 965-975. For rice, the cultivar Nipponbare was used. For maize, the cultivars DKC 2931 and 8104 were used for regular pot experiments and sand-based pot experiments, respectively. For soybean, the cultivar Primus was used. […] The medium was solidified due to the addition of 0.6% Gelrite, unless stated otherwise. […]
Regular Arabidopsis, soybean and maize pot experiments used an unfertilized potting soil, which was supplemented at the start of the experiment with 50 ml H2O containing 0.25 g/l NH4NO3 and 0.44 g/l (high phosphate) or no (maize and soybean) or 0.11 g/l KH2PO (Arabidopsis) for low phosphate conditions. […] Compound concentration was 10 μM, calculated based on the total water content after watering, and was added at the start of the experiment (Arabidopsis) or once a week (maize). […] All parameters in the sand experiment, except the rate of leaf 4 (measured the first 4 days after emergence), were measured 19 days after sowing. Measurements in the pot experiments with potting soil were done after 4 weeks of growth, except for leaf 5, which was measured at 26 days. […]

A further assay concerns maize cultivar DKC 2931. Briefly: Regular maize pot experiment (potting soil). In kind it is in vivo. The settings on record: low phosphate, 10 μM compound. On the procedure: as §1
Regular Arabidopsis, soybean and maize pot experiments used an unfertilized potting soil, which was supplemented at the start of the experiment with 50 ml H2O containing 0.25 g/l NH4NO3 and 0.44 g/l (high phosphate) or no (maize and soybean) or 0.11 g/l KH2PO (Arabidopsis) for low phosphate conditions. For the sand-based maize pot experiment, sand was supplemented with 50 ml H2O containing 0.25 g/l NH4NO3 and 0.38 g/l (high phosphate) or 0.02 g/l (low phosphate) KH2PO4. Potassium was balanced via addition of KCl. Compound concentration was 10 μM, calculated based on the total water content after watering, and was added at the start of the experiment (Arabidopsis) or once a week (maize). Indexed chlorophyll contents were received via a SPAD 502 Plus Chlorophyll Meter. All parameters in the sand experiment, except the rate of leaf 4 (measured the first 4 days after emergence), were measured 19 days after sowing. Measurements in the pot experiments with potting soil were done after 4 weeks of growth, except for leaf 5, which was measured at 26 days. The long term maize pot experiment was performed on the automated Phenovision platform (see Mertens et al, 2021, https://doi.org/10.3389/fpls.2021.640914) with maize cultivars B104 and DKC2931. End point measurements occurred after 90 days (B104) or 70 days (DKC2931). Plants were grown on an unfertilized potting soil, which was fertilized bi-weekly with 50 mL modified Hoagland solution (2.5× concentrated; but with 0.25 mM KH2PO4).

Assay [4] concerns Arabidopsis thaliana Columbia-0. In words: Root hair number and length quantification, Arabidopsis vertical plate. Type of assay: in vivo. On the procedure: as §1
Roots were imaged using a stereomicroscope or a VHX-6000. Number and length of the root hairs parallel to the medium surface was determined at 4 to 6 mm above the root meristem. Root hair length was measured using the ImageJ software.

Setting [5] is: Arabidopsis vertical plate, high phosphate.

For the molecule `CCN(CCCNc1ncnc2nc(N)ccc12)c1ccccc1` [Example 1], in assay [1] (Arabidopsis horizontal plate, low phosphate, 10 μM compound, 21 days after germination (Table 1)), the Leaf area was determined as 94 mm^2. Moreover, the “Leaf area in suboptimal phosphate conditions” value in assay [1] (Arabidopsis horizontal plate, suboptimal phosphate (600 μM), 10 μM compound) amounted to 120 mm^2. Besides, the Average leaf area in assay [1] (Arabidopsis horizontal plates (Table 4), control without compound 63) is 66 mm^2. Also, the “GUS (SPX1) stained area normalized to the number of seeds” value in assay [2] (50 μM compound, low phosphate modMS liquid medium, 96-well, 7 days after germination, low phosphate control of same plate) was determined as 0.3 pixels. Besides, the “Suppression of the SPX1 biomarker (in words)” value in assay [2] (low phosphate, 7 days of growth, GUS staining, listed as compound 17) is “practically completely suppressed the SPX1 biomarker; also recorded: strongest suppression of SPX1”. Moreover, the “Anthocyanin level in the leaves (in words)” value in assay [3] (96-well plate assay) is given as “reduced”. Further, the Relative anthocyanin level in assay [3] (Arabidopsis 96-well plate, low phosphate, 50 μM compound, 7 days after germination, relative to control (=1)) was determined as 0.6. In the assay on soybean cultivar Primus, this molecule gave a Biomass of 4.4 g and a Plant height of 63 cm. In addition, in the assay with maize cultivar DKC 2931 (4 weeks), the Plant height amounted to 59 cm and the Shoot weight is 4 g. Also, the “Leaf 5” value in the assay with maize cultivar DKC 2931 (26 days) was 43 cm. Further, the activity at 1 µM in assay [4] (Arabidopsis thaliana, 1 μM compound, read-out: Total root hair length per root (in % compared to the control)) amounted to 749%. In addition, in assay [4] (setting [5]), the “Average root hair length per root in high phosphate conditions” value worked out at 0.26 mm, the “Root hair number in high phosphate conditions (one plane in 2 mm region)” value came to 9 and the “Total root hair length per root in high phosphate conditions” value is recorded as 0.26 cm.
